Values joined by “and” are separate entries in the source; they are usually repeats but may differ in a detail not shown here. Equal entries are not always repeated. “Also recorded” adds a separate entry of the source.
What was measured:
CX-1 colon xenograft = test: NCI screen, CX-1 colon xenograft, renal capsule (summary); type: in vivo, human tumor xenograft in athymic mice; details: for Antitumor activity in words: CX-1 colon xenograft
From the text: (§1) The activity of the compound has been evaluated by experiments carried out under the auspices of the Division of Cancer Treatment, National Cancer Institute, employing techniques considered to be reliable indicators of chemotherapeutic utility in the treatment of forms of cancer in human patients. The details of the methodology employed in the reported experiments may be determined with reference to established NCI screening methods.
(§2) In the experiments conducted by the NCI, evaluation of activity is made on the basis of appropriate parameters, such as median survival time (MST) or change in average tumor diameter (CATD)in ocular micrometer units (OMU).

beagle dogs = test: Five daily dose dog toxicity study; type: in vivo
Procedure: (§3) Preclinical toxicity studies of BIDA were completed in CD2F1 Mice, Fischer 344 rats and beagle dogs (4). The animals were injected IV with a single bolus or daily for five days.
(§4) A preclinical toxicology study of benzisoquinolinedione (NSC-308847) was done at Springborn Institute for Bioresearch, Inc. using CD2 F1 mice, Fischer 344 rats and beagle dogs. Animals were injected intravenously on a single dose (X1) or five daily dose (X5) regimen. Bulk drug was titrated with 0.5N HCl to form a salt solution of benzisoquinolinedione at a pH of 5.0-6.5. Sterile 0.9% saline was used for diluting the dosing solutions and was used for the vehicle control animals.
The following summarizes the major organ toxicities resulting from IV administration of benzisoquinolinedione to dogs.

Fischer 344 rats = test: Five daily dose rat toxicity study; type: in vivo; details: for toxicity summary, rats: five daily doses i.v. (X5)
Procedure: as §3, §4
The following summarizes the major organ toxicities resulting from IV administration of benzisoquinolinedione to rats.

Colon 38 = test: Experiment 13: Colon 38 s.c., saline with Tween-80, male; type: in vivo, Mouse B6 D2 F1 (BDF1)
From the text: Host: Mouse B6 D2 F1 (BDF1)
Inoculum Site: Subcutaneous
Vehicle: Saline with Tween-80
Treatment schedule (relative to tumor inoculation day): Days 2 and 9
Day of evaluation (relative to tumor inoculation day): 20
Parameter: Median tumor weight (MTW) estimated from tumor diameter
NCI minimal activity criteria: Percent T/C≤42
Percent T/C: Ratio of test (T) evaluation to control (C) evaluation expressed as a percentage

LX-1 lung xenograft = test: NCI screen, LX-1 lung xenograft, renal capsule (summary); type: in vivo, human tumor xenograft in athymic mice; details: for Antitumor activity in words: LX-1 lung xenograft
From the text: as §1, §2

[1] = type: physicochemical
From the text: (§5) Stability: The reconstituted solution is stable for 14 days at room temperature. When further diluted 200-fold with normal saline the drug remains stable for 14 days at both room and refrigeration temperatures. The reconstituted solution is not stable when further diluted with 5% dextrose in water so this vehicle will not be used for infusions of the drug. Storage: The intact vials should be stored under refrigeration.
as §5, with “saline the drugs remains stable” for “saline the drug remains stable”

[2] = Five daily dose (X5) mouse range-finding and lethality study; type: in vivo, CD2 F1 mice; details: mouse, in vivo, iv
Procedure: as §4
(§6) The deaths generally were preceded by rough hair coat, decreased activity, hunched posture and dehydration. […] Males and females were similarily affected on both schedules.
(§7) Defined Doses for the Five Daily Dose Mouse Lethality

CD2 F1 mice = test: as above; type: in vivo
Procedure: as §4, §6, §7

[3] = change in average tumor diameter, 4 tests, full wrapped cell: Activity not confirmed
[4] = 12.0 mg/kg/day, listed as benzisoquinolinedione
[5] = 24.0 mg/kg/day, females, day 8-9
[6] = 24.0 mg/kg/day, listed as benzisoquinolinedione
[7] = X5, listed as benzisoquinolinedione

CN(C)CCN1C(=O)c2cccc3cc(N)cc(c23)C1=O [Example 9, 1H-Benz[de]isoquinoline-1,3(2H)-dione, 5-amino-2-[2-(dimethylamino)ethyl]]
Antitumor activity in words (CX-1 colon xenograft; listed as BIDA): No activity was seen | Antitumor activity in words (CX-1 colon xenograft; listed as the compound): not active | Table II evaluation (CX-1 colon xenograft; [3]): Activity not | drug-related toxicities (beagle dogs; 0.38 mg/kg/day): No drug-related toxicities were found | Mortality / lethality (beagle dogs; 0.38 mg/kg/day (1/10MELD10)): 0/4 | drug-related toxicities (beagle dogs; 3.8 mg/kg/day): No drug-related toxicities were found | Mortality / lethality (beagle dogs; 3.8 mg/kg/day (MELD10)): 0/4 | gross or microscopic lesions (beagle dogs; 11.4 mg/kg/day): No drug-related gross or microscopic lesions were found | Mortality / lethality (beagle dogs; 11.4 mg/kg/day (3XMELD10), listed as BIDA): Neither the single injection of 2×MELD10 or the daily×5 injection of the 3×MELD10 caused lethality | Mortality / lethality (beagle dogs; 11.4 mg/kg/day (3XMELD10), listed as benzisoquinolinedione): no deaths and 0/4 | leukopenia (leukocyte count) (beagle dogs; 11.4 mg/kg/day, all four dogs): 3.5-6.6 ×10^3 /cmm | Nervous system signs (beagle dogs; 11.4 mg/kg/day, days 2 and/or 3): Three of four dogs showed signs indicating nervous system toxicity | BUN (beagle dogs; 11.4 mg/kg/day, one dog, day 8): 27 mg/dL | decrease in hemoglobin, hematocrit and red blood cells below pretest values (beagle dogs; 11.4 mg/kg/day, two dogs, day 4 or 8): 15-24% | toxicity summary, dogs (beagle dogs; five daily doses i.v., listed as benzisoquinolinedione): reversible toxicity to the hematopoietic system, kidney and liver; also recorded: Signs indicative of pain and/or neurotoxicity; also recorded: No drug-related gross or microscopic lesions | gross or microscopic lesions (Fischer 344 rats; 6.0 mg/kg): No drug-related gross or microscopic lesions were found | Mortality / lethality (Fischer 344 rats; 6.0 mg/kg/day (1/2MELD10)): 0/20 | Hematologic findings (Fischer 344 rats; 6.0 mg/kg, listed as benzisoquinolinedione): Female rats showed moderate increases in reticulocytes on days 15 and 22, followed by a moderate decrease on day 36; also recorded: The males were not affected | Mortality / lethality (Fischer 344 rats; 12.0 mg/kg/day (MELD10)): 0/20 | Reproductive findings (Fischer 344 rats; 12.0 mg/kg/day, day 36, listed as benzisoquinolinedione): slight decrease in testicular weight on day 36; also recorded: moderate testicular atrophy in all males | mild to moderate diffuse bone marrow atrophy, incidence (Fischer 344 rats; 12.0 mg/kg/day, females, day 8): 4/5 | Hematologic findings (Fischer 344 rats; [4]): Slight decreases in hemoglobin, hematocrit and red blood cells were seen in female rats on day 8; also recorded: moderate reticulocytopenia; also recorded: male rats had a mild increase in reticulocytes on day 22; also recorded: Females had slight to mild leukocytosis on days 15 and 22; also recorded: The males had a moderate increase in WBC only on day 15; also recorded: No microscopic lesions were seen on day 36 in either sex | Integumentary findings (Fischer 344 rats; [4]): dry yellowish-white scaly tails; also recorded: microscopic evaluation did not show any tail lesions | mild thymic atrophy, incidence (Fischer 344 rats; 12.0 mg/kg/day, males, day 8): 1/5 | mild to moderate diffuse bone marrow atrophy, incidence (Fischer 344 rats; 12.0 mg/kg/day, males, day 8): 4/5 | Mortality / lethality (Fischer 344 rats; 24.0 mg/kg/day (2XMELD10), listed as benzisoquinolinedione): 5/20 and Two females were found dead and three females were sacrificed | marked testicular atrophy, incidence (Fischer 344 rats; 24.0 mg/kg/day, day 36): 2/5 | moderate testicular atrophy, incidence (Fischer 344 rats; 24.0 mg/kg/day, day 36): 2/5 | severe testicular atrophy, incidence (Fischer 344 rats; 24.0 mg/kg/day, day 36): 1/5 | moderate to marked spleen atrophy, incidence (Fischer 344 rats; 24.0 mg/kg/day, females): 3/10 | marked jejunal epithelial degeneration, incidence (Fischer 344 rats; 24.0 mg/kg/day, females, day 8): 5/10 | marked necrosis of mesenteric lymph node, incidence (Fischer 344 rats; 24.0 mg/kg/day, females, day 8): 1/10 | mild atrophy of mesenteric lymph node, incidence (Fischer 344 rats; 24.0 mg/kg/day, females, day 8): 1/10 | mild to marked duodenal epithelial degeneration, incidence (Fischer 344 rats; 24.0 mg/kg/day, females, day 8): 5/10 | mild to marked duodenal epithelial necrosis, incidence (Fischer 344 rats; 24.0 mg/kg/day, females, day 8): 7/10 | mild to marked ileal epithelial necrosis, incidence (Fischer 344 rats; 24.0 mg/kg/day, females, day 8): 10/10 | mild to marked jejunal epithelial necrosis, incidence (Fischer 344 rats; 24.0 mg/kg/day, females, day 8): 9/10 | mild to severe colonic epithelial necrosis, incidence (Fischer 344 rats; 24.0 mg/kg/day, females, day 8): 3/10 | moderate to marked ileal epithelial degeneration, incidence (Fischer 344 rats; 24.0 mg/kg/day, females, day 8): 5/10 | marked to severe bone marrow atrophy, incidence (Fischer 344 rats; [5]): 10/10 | marked to severe thymic atrophy, incidence (Fischer 344 rats; [5]): 9/10 | Hepatic findings (Fischer 344 rats; 24.0 mg/kg/day, females, day 9): multifocal liver necrosis in two females | Gastrointestinal findings (Fischer 344 rats; [6]): Diarrhea was observed on days 6 to 10 in males and days 6 to termination (day 8 or 9) in females; also recorded: mild to marked epithelial degeneration and necrosis of the duodenum, jejunum and ileum of both sexes; also recorded: No lesions were seen in long-term males; also recorded: emaciation (days 7-12) and dehydration (days 9-12) | Hematologic findings (Fischer 344 rats; [6]): Mild increases in hemoglobin, hematocrit and red blood cells were seen in male rats on day 8; also recorded: moderate to slight decreases in these parameters on days 15 and 22; also recorded: No reticulocytes were observable in either sex on day 8; also recorded: marked decreases being seen on day 8, followed by moderate to marked increases above baselines on days 15 and 22; also recorded: mild thrombocytosis | Reproductive findings (Fischer 344 rats; [6]): All five males showed decreased testicular weights on day 36; also recorded: No reproductive lesions were seen on day 8 in males or females | marked jejunal epithelial degeneration, incidence (Fischer 344 rats; 24.0 mg/kg/day, males, day 8): 4/5 | marked to severe bone marrow atrophy, incidence (Fischer 344 rats; 24.0 mg/kg/day, males, day 8): 5/5 | marked to severe thymic atrophy, incidence (Fischer 344 rats; 24.0 mg/kg/day, males, day 8): 3/5 | mild necrosis of the hair bulb, incidence (Fischer 344 rats; 24.0 mg/kg/day, males, day 8): 2/5 | mild to marked duodenal epithelial degeneration, incidence (Fischer 344 rats; 24.0 mg/kg/day, males, day 8): 4/5 | mild to marked duodenal epithelial necrosis, incidence (Fischer 344 rats; 24.0 mg/kg/day, males, day 8): 5/5 | mild to marked ileal epithelial necrosis, incidence (Fischer 344 rats; 24.0 mg/kg/day, males, day 8): 4/5 | mild to marked jejunal epithelial necrosis, incidence (Fischer 344 rats; 24.0 mg/kg/day, males, day 8): 4/5 | moderate to marked ileal epithelial degeneration, incidence (Fischer 344 rats; 24.0 mg/kg/day, males, day 8): 4/5 | depression of group mean body weights (Fischer 344 rats; 24.0 mg/kg/day, males, day 26 as printed): 31 | body weight loss at termination (Fischer 344 rats; 24.0 mg/kg/day, males, day 36): 31 | moderate bone marrow atrophy, incidence (Fischer 344 rats; 24.0 mg/kg/day, males, day 36): 1/5 | moderate to marked hyperkeratosis, incidence (Fischer 344 rats; 24.0 mg/kg/day, males, day 36): 4/5 | moderate to severe thymic atrophy, incidence (Fischer 344 rats; 24.0 mg/kg/day, males, day 36): 2/5 | depression of group mean body weights (Fischer 344 rats; 24.0 mg/kg/day, males, days 15 and 22): 26 | Tail (integumentary) findings (Fischer 344 rats; 24.0 mg/kg/day, males, listed as benzisoquinolinedione): the tail skin was friable and sloughing in males; also recorded: severe tail necrosis in all five males | Deaths, females (Fischer 344 rats; 2XMELD10, X5): one-half of the females | toxicity summary, rats (Fischer 344 rats; listed as BIDA): reproductive system toxicity was seen at doses of MELD 10 and higher | toxicity summary, rats (Fischer 344 rats; listed as benzisoquinolinedione): toxic on both schedules (X1, X5) to the hematopoietic system and to the male reproductive system; also recorded: gastrointestinal, tail lesions and possibly hepatotoxicity; also recorded: Toxicity to the testes and tails was delayed and had not reversed by day 36 | Median tumor weight (MTW) (Colon 38; 16.00 mg/kg i.p.): 2474 | Percent T/C (Colon 38; 16.00 mg/kg i.p.): 102% | Median tumor weight (MTW) (Colon 38; 32.00 mg/kg i.p.): 1146 | Percent T/C (Colon 38; 32.00 mg/kg i.p.): 47% | Median tumor weight (MTW) (Colon 38; 64.00 mg/kg i.p.): 700 | Percent T/C (Colon 38; 64.00 mg/kg i.p.): 29% | Median tumor weight (MTW) (Colon 38; 128.00 mg/kg i.p.): Deaths before evaluation | Antitumor activity in words (LX-1 lung xenograft; listed as BIDA): No activity was seen | Antitumor activity in words (LX-1 lung xenograft; listed as the compound): not active | Table II evaluation (LX-1 lung xenograft; [3]): Activity not | stability of reconstituted solution [1]: 14 days | stability, diluted 200-fold with normal saline [1]: 14 days | stability, diluted with 5% dextrose in water [1]: not stable | LD50 ([2]; combined sexes): 28.4 mg/kg | LD50 ([2]; male): 28.8 mg/kg | body weight, mice (CD2 F1 mice; X5): Dose-related weight loss was mild to severe initially | time of mortality, mice (CD2 F1 mice; [7]): between days 1 and 10; also recorded: between days 6 and 10 | toxic signs, mice (CD2 F1 mice; [7]): labored breathing, exophthalmus, hyperextension of limbs, loss of locomotor ability, struggling, rough hair coat, huched posture, dehydration, increased irritability, decreased activity, swollen and necrotic tails, squinted eyes, prostration and moribundity; also recorded: ataxia and swollen faces with closed eyes and ocular discharge; also recorded: tail lesions which persisted to termination on day 33 | LD10 (CD2 F1 mice; combined sexes): 24.9 mg/kg/day | LD10, second dose column (CD2 F1 mice; combined sexes): 74.7 | LD90 (CD2 F1 mice; combined sexes): 32.5 mg/kg/day | LD90, second dose column (CD2 F1 mice; combined sexes): 97.5 | Slope (lethality) (CD2 F1 mice; combined sexes): 22.3 | LD10 (CD2 F1 mice; male): 24.3 mg/kg/day | LD10, second dose column (CD2 F1 mice; male): 72.9 | LD90 (CD2 F1 mice; male): 34.2 mg/kg/day | LD90, second dose column (CD2 F1 mice; male): 102.6 | Slope (lethality) (CD2 F1 mice; male): 17.2

— US5183821A, “Method for treating leukemias using N-(2-dimethylaminoethyl)-3-amino-1,8-naphthalimide for treating leukemias and solid tumors” (priority 1991, dated 1993)
